Assay results taken from patent publication US20230339922A1, “COVALENT EGFR INHIBITORS AND METHODS OF USE THEREOF” (DANA-FARBER CANCER INSTITUTE, INC., priority 2020, published 2023).

What was measured:
[1] = tested on: EGFR mutant L858R Ba/F3 cells; assay: Ba/F3 cell proliferation (Cell Titer Glo), EGFR L858R; type: cell-based, murine; settings: Mus musculus, BaF3, Ba/F3 cells with EGFR L858R, 72 hours exposure, read-out: L BaF3
Excerpt: (§1) The EGFR mutant L858R Ba/F3 cells have been previously described (Zhou, W., et al. Nature 462, 2009, 1070-1074). The EGFR C797S and C775S mutations were introduced via site directed mutagenesis using the Quick Change Site-Directed Mutagenesis kit into a vector containing EGFR […] mutation (Stratagene; La Jolla, CA) according to the manufacturer’s instructions. All constructs were confirmed by DNA sequencing. The constructs were then shuttled into the retroviral vector JP1540 by either using the Cre-recombination system (Agilent Technologies, Santa Clara, CA) or the In-fusion HD Cloning kit (Takara Bio USA, Inc.; Mountain view, CA). Ba/F3 cells were then infected with retrovirus per standard protocols, as described previously (Zhou, et al, Nature 2009). […]
(§2) Growth and inhibition of growth was assessed by the Cell Titer Glo assay (Promega, Madison, WI) and was performed according to the manufacturer’s instructions. The Cell Titer Glo assay is a luminescence-based method used to determine the number of viable cells based on quantitation of the ATP present, which is directly proportional to the amount of metabolically active cells present. Ba/F3 cells of different EGFR genotypes were exposed to compounds for 72 hours and the number of cells used per experiment was determined empirically as has been previously established (Zhou, et al., Nature 2009). […]

[2] = tested on: EGFR L858R/C797S Ba/F3 cells; assay: Ba/F3 cell proliferation (Cell Titer Glo), EGFR L858R/C797S; type: cell-based, murine; settings: Mus musculus, BaF3, Ba/F3 cells with EGFR L858R/C797S, 72 hours exposure, read-out: L/C797S
Excerpt: as §1, §2

## C=CC(=O)Nc1cc(C(=O)Nc2nc3cccc(C)c3n2[C@@H]2CCCCN(C(=O)C=C)C2)cs1 [compound 001]
[1]
  EC50: 6 nM
[2]
  EC50: 334 nM
